US6100236A, “Method and composition for treating thrombosis” (La Jolla Cancer Research Foundation, priority 1995, dated 2000)
Values joined by “and” are separate entries in the source; they are usually repeats but may differ in a detail not shown here. Equal values may be shown once.

How the values were obtained:
[1] = molecular target: T1, Fibronectin receptor (Fn-R) (Homo sapiens, UniProt P05556+P08648); experiment: Competitive ELISA for fibronectin receptor binding; details: purified receptor from human placenta, read-out: FnR Binding (IC50)
T1 construct: similarly purified from (100 mM) octyl glucoside-extracted human placenta; from tissue; host or cells: human placenta
Procedure: Peptide binding to purified Fn-R was determined by using a competitive enzyme-linked immunosorbent assay (ELISA) in which fibronectin is immobilized and the binding of solubilized Fn-R is detected with labeled anti-FnR antibodies in the presence of various concentrations of peptide analogue.
Microtiter plates were coated with 110 μl of human fibronectin (at 2 μg/ml) in TBS. The plates were washed three times with TBS that contained 0.05% Tween 20. If necessary, peptides were added after this washing in 10 microliter aliquots. The fibronectin receptor was then added in 2-fold serial dilutions with TBS containing 20 mM octyl glucoside and 2 mM MnCl2. The plates were incubated for three hours at room temperature, washed with 200 μl of the above TBS-Tween buffer. 100 μl of affinity-purified rabbit anti-human fibronectin receptor antibody was added to the wells and the plates were incubated for an additional two hours, washed twice with TBS-Tween and then distilled water. Affinity-purified goat anti-rabbit IgG conjugated to horseradish peroxidase (100 μl) was then added to each well. Bonding reactions were incubated for 16 hours at room temperature. The following day, the plates were washed twice with TBS-Tween and then distilled water. […]
IC50 s for FnR were determined by ELISA (Example III).

[2] = tested on: platelets; experiment: Ex vivo platelet aggregation after peptide injection in canine coronary thrombosis model; parameters: species or system dog; details: for Ex vivo reduction of aggregation relative to control levels: 3 mg/kg
Procedure: For all ex vivo studies (see FIG. 3), control aggregation values were standardized to the percentages of light transmission observed in PRP and PPP samples (0% and 100%, respectively).
(§1) Animals were randomly assigned to two treatment groups: vehicle control (i.e., normal saline) or RGD peptides at various concentrations. Peptides were administered intra-atrially in both bolus and continuous injections. […] A continuous infusion of the same peptide was then started immediately after completion of this initial injection. Animals that received a 5 mg/kg bolus. also received a 5 mg/kg/hr infusion, whereas animals that received a 10 mg/kg bolus also received a 10 mg/kg/hr infusion. The anti-thrombotic effects of the peptides were monitored until 30 minutes after the occurrence of a persistent, occlusive thrombus or five hours after the initiation of electrical stimulation (whichever resulted first). If an occlusive thrombus had not developed within four hours after the initiation of current, the peptide infusion was stopped.
Platelet counts and ex vivo aggregation studies were performed one hour before and 1, 3, and 5 hours after application of anodal direct current.
Platelet aggregation was also determined ex vivo at one, three, and five hours after current application. […]
The average aggregation values determined in these studies for all of the peptide treatments are depicted in FIG. 3. […] The control responses in these studies were 70-80% of maximum. […] Here the control responses were 55-80% of maximum.

[3] = tested on: Electrically induced canine coronary thrombosis; experiment: Electrically induced canine coronary thrombosis, time to full occlusion; type: in vivo, dog
Procedure: Male mongrel dogs weighing 14 to 20 kg were selected based on proper aggregation of their platelets in response to arachidonic acid, collagen, and adenosine disphosphate (ADP) and based on similar weights and hemodynamic properties.
Before surgery, the animals were anesthetized with sodium pentobarbital (30 mg/kg, i.v.) and then intubated and ventilated on room air with positive pressure using a respirator (Harvard Apparatus, S. Natick, Mass.) at a volume of 30 ml/kg and a frequency of 12 breaths/min. Surgery, performed under aseptic conditions, was begun with the placement of cannulae into the left carotid artery and jugular vein for monitoring arterial blood pressure (Statham P23 pressure transducer, Gould, Inc., Cardiovascular Products, Oxnard, Calif.) and administering intravenous fluids.
The heart was exposed via a left thoracotomy through the 5th intercostal space. A 2-cm segment of the left circumflex coronary artery (LCCA) was isolated from surrounding tissue by blunt dissection. […] The intra-coronary electrode was constructed by attaching a 25-gauge hypodermic needle tip to a 30-gauge Teflon-insulated silver-coated copper wire. The mechanical occluder was constructed of stainless steel in a C shape with a Teflon screw (2 mm diameter) on top. It was adjusted to control vessel circumference and decrease the reactive hyperemic flow due to a 10-sec (full) occlusion by 50-70% without affecting basal coronary blood flow (FIG. 1). A monopolar epicardial electrode was sutured to the surface of the ventricle in the region of LCCA distribution to monitor ischemic changes in the electrocardiogram (ECG). The left atrium was cannulated with polythylene tubing for administration of the peptide. Continuous recordings of blood pressure, limb lead II ECG, epicardial electrogram, and mean and phasic LCCA blood flow were obtained on a Model 7 polygraph (Grass Instrument Co., Quincy, Mass.).
One hour after the completion of surgery, a 100 micro-amp continuous anodal direct current delivered from a 9 volt nickel-cadmium battery was applied to the intimal surface of the LCCA. The anode of the battery was in series with a 250,000 ohm potentiometer and the intraluminal coronary artery electrode. The electric circuit was completed by placing the cathode in a subcutaneous site. Electrical stimulation was applied for three hours. At the conclusion of each experiment, the heart was fibrillated electrically and quickly removed, and the LCCA was dissected free as far as possible to verify the position of the implanted anodal electrode.
as §1
Coronary thrombosis was quantified as the time to full occlusion. The effects of the various peptide treatments on coronary thrombosis is illustrated in FIG. 4.

[4] = tested on: platelets; experiment: Ex vivo ADP-stimulated platelet aggregation in baboon PRP; details: animal 2; ADP 10 μm; PRP at 0, 1 and 2 hours
Procedure: At one- and two-hour time points, template bleeding times were measured, and blood samples were drawn to assess the hematology aggregation studies. Platelet aggregation studies were performed as described in Example V using ADP as the stimulus.
In addition, platelet aggregation studies were conducted on PRP derived from the second animal. Whole blood was drawn at three time points (0, 1 and 2 hours) of both control and experimental shunts.

[5] = 10 mg/kg bolus + 10 mg/kg/hr infusion, intra-atrial
[6] = 10 mg/kg injection, all three time points

T1 sequence (P08648 42-894 limits assumed): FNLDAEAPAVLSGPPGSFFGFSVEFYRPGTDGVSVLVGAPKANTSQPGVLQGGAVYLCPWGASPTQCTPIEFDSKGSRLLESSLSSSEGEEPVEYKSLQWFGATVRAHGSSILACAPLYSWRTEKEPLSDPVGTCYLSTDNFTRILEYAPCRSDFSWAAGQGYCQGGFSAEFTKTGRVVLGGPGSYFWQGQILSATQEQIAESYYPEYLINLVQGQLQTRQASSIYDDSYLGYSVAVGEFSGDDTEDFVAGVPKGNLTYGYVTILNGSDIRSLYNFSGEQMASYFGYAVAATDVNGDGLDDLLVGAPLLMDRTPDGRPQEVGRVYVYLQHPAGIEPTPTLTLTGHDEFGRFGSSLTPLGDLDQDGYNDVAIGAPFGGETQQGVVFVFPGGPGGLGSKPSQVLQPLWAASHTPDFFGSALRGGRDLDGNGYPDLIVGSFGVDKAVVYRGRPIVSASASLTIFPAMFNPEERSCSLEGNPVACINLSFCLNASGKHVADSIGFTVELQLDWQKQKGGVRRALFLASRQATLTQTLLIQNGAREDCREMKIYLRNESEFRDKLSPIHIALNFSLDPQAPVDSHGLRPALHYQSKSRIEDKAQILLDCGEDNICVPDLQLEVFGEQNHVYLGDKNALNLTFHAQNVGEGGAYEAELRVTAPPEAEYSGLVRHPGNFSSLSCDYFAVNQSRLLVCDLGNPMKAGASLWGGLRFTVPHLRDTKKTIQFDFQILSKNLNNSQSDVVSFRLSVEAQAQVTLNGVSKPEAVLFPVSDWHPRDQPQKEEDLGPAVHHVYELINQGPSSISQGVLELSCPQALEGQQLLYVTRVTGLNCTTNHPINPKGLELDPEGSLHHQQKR
T1 sequence (P08648 895-1049 partner limits assumed): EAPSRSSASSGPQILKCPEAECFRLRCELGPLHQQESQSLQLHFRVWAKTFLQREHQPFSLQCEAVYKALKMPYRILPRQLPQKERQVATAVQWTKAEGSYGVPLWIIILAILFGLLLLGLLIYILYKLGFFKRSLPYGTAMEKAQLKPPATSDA
T1 sequence (P05556 21-798): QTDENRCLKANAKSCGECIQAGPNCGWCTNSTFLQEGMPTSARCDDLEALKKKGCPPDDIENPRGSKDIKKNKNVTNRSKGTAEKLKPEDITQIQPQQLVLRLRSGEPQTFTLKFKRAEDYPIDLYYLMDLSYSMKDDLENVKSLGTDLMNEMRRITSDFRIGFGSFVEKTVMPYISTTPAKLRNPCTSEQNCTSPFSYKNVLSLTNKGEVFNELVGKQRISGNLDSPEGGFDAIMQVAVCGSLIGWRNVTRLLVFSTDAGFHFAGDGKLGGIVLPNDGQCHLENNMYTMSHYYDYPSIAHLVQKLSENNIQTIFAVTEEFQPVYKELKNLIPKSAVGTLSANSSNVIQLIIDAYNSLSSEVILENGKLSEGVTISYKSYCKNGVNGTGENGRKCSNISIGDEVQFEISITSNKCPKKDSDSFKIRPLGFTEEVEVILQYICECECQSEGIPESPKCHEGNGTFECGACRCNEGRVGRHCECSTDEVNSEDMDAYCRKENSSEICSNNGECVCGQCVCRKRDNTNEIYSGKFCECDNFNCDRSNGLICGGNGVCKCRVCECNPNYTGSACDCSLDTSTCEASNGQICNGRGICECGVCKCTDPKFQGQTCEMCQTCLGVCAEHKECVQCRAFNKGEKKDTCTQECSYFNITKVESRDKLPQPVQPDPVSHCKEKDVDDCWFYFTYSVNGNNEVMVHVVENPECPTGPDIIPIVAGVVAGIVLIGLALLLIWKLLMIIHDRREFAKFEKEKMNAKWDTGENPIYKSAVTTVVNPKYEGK

In the case of VRGDSPDG, the IC50 [1] is reported as 40 nM.

In the case of YRGDSPDG, the IC50 [1] is reported as 1100 nM.

RPenGHRGDWRCR was tested, and the “Ex vivo inhibition of platelet activation by collagen” value ([2]; 5 mg/kg injection) was “near-maximal inhibition”, the “Ex vivo platelet response to ADP and AA” value ([2]; 5 mg/kg injection, all three time points) was “completely unresponsive” and the “Ex vivo anti-aggregation effect at low platelet count” value ([2]; 5 mg/kg injection, platelet count ca. one-third of normal (104,000/ml vs. 361,000/ml)) was “more pronounced”. The “Effect on time to full coronary occlusion” value (“Effect on time” for short) ([3]; 5 mg/kg bolus + 5 mg/kg/hr infusion, intra-atrial) was “significantly prolonged the time to occlusion”, the “Thrombus formation in animals with low platelet levels” value ([3]; 5 mg/kg, circulating platelet levels one-third of normal) was “able to prevent thrombus formation” and the “Effect on time” value [3, 5] was “completely prevented occlusion”.

RPenGRGDWPCR was tested, and the “Ex vivo reduction of aggregation relative to control levels” value ([2]; one hour) was 20-58%, the “Ex vivo reduction of aggregation relative to control levels” value ([2]; three and five hours, listed as 4R) was 75-100% and 72-100% and the “Ex vivo platelet response to all modes of stimulation” value ([2]; 10 mg/kg injection, all time points) was “unresponsive to all modes of stimulation”. For the same substance, the “Effect on time” value ([3]; 3 mg/kg) was “ineffective” and the “Effect on time” value [3, 5] was “prevented occlusion throughout the duration of the study”.

For GPenGHRGDLRCA, the “Ex vivo inhibition of ADP-stimulated aggregation” value ([2]; 10 mg/kg injection, 1, 3 and 5 h) was “substantially inhibited”, the “Ex vivo inhibition of AA-stimulated aggregation relative to control levels” value [2, 6] was 43-70% and the “Ex vivo inhibition of collagen-stimulated aggregation relative to control levels” value [2, 6] was 12-50%. For the same substance, the “Ex vivo platelet response to ADP” value [4] was “completely unresponsive” and the “Effect on time” value [3, 5] was “did not significantly influence”.
